melting point [°C]	Compound
138 to 140	Cc1cc(OC(=O)c2ccc(Cl)c(OCCn3cnnn3)c2Cl)n(C)n1
75.5 to 76.5	CC(C)CS(=O)(=O)c1ccnc(OS(C)(=O)=O)c1
177 to 180	O=C1NCCCc2ccc([N+](=O)[O-])cc21
109	Cc1cc(C)c(S(=O)(=O)OCCCCOS(=O)(=O)c2c(C)cc(C)cc2C)c(C)c1
100 to 101	O=Cc1cccnc1S(=O)(=O)c1ccc(Cl)cc1
135 to 137	Brc1ccc2cc(OCc3ccc4ccccc4n3)ccc2c1
120 to 123	CC(C(=O)O)c1ccc(-c2ccccc2F)c(F)c1 (stereo not drawn)
47 to 47.5	CC1CCNC1=C[N+](=O)[O-] (stereo not drawn)
40	C[C@@H](Cn1ncc2ccc(O)c(Br)c21)NC(=O)OCc1ccccc1
69 to 72	CCOC(=O)CCCCCOc1cc2c(c(Cl)c1Cl)C(=O)C(C)(C1CCCC1)C2 (stereo not drawn)
43 to 45	CCCCCCCCCCC1(CCCCCCCCCC)c2cc(Br)ccc2-c2ccc(I)cc21
54 to 56	CC(=O)c1ccc(C(Br)C(=O)OC(C)(C)C)cc1 (stereo not drawn)
286 to 287	CC1(C)CCC(C)(C)c2cc(NC(=O)c3ccc(C(=O)O)cc3O)ccc21
237 to 241	COc1cc2c(c3c1OC(C)(C)C3)C(c1cccc(NC(=O)c3ccc(CP(=O)(O)O)cc3)c1)=NC(C)(C)C2
120	Cc1cccc(-c2nc3ccccn3c2-c2ccnc(-c3ccc(OCc4cn(C)cn4)cc3)c2)n1
193 to 194	CC(C)CSc1cc(C(=O)O)cc(S(N)(=O)=O)c1Oc1ccccc1
169	Cc1cc(OCCCS(C)(=O)=O)cc(C)c1-c1cccc2c1OC[C@H]2Nc1ccc2c(c1)OC[C@H]2CC(=O)O
160 to 161	Cc1ccc(-c2cc(C(F)F)nn2-c2ccc(S(N)(=O)=O)c(F)c2)cc1Cl
95 to 97	O=C(CN1CCOCC1)NC(c1ccccc1)C1(c2ccc(Cl)cc2)CCC1 (stereo not drawn)

melting point [°C]	Compound
130 to 131	Cn1c(C(O)(C(F)(F)F)C(F)(F)F)cc(-c2ccc(F)cc2)c1-c1ccc(F)cc1
243 to 246	CC1(Cn2c(=O)oc3ccc(Br)cc32)Cn2cc([N+](=O)[O-])nc2O1 (stereo not drawn)
210 to 215	O=C(NC(=O)c1c(F)cccc1Cl)Nc1ccc(Cl)cn1
32.5 to 32.8	CCCCCCCCc1ccc(C=Nc2ccc(C#N)cc2)cc1
126 to 128	OCc1cnc2c(F)c(F)c(F)cc2c1-c1cccs1
160 to 163	CC1(C)C(=O)Oc2ccc3cc(N)c(Cn4cncn4)cc3c21
207 to 208	CC(C)(CC(O)(Cn1ccc2c1CCCC2=O)C(F)(F)F)c1cc(S(C)(=O)=O)cc2c1OCC2 (stereo not drawn)
165	CC(=O)Nc1ccc(-c2cc(C(=O)c3ccccc3)sc2N2CCOCC2)cc1
157 to 159	Cc1ccc(C(=O)Nc2cccc(C(F)(F)F)c2)cc1-c1ccc2ccncc2c1
245 to 247	CN1CC(=O)Nc2ncccc2C1=O
123 to 125	CCC(C)CC1OC(CC(=O)Nc2ccc(F)c(CCC(=O)O)c2)C(=O)N(CC(C)(C)CO)c2ccc(Cl)cc21 (stereo not drawn)
147 to 149	CN(C)S(=O)(=O)Nc1cc(C(=O)c2ccccc2)ccc1N
151 to 153	CSc1ccc2c(c1)Cc1ccc(CO)cc1O2
95 to 98	CN1C(=O)c2ccccc2N(N=O)c2ccccc21
181 to 183	CCCCNc1c2c(nc3c1cnn3CC)C(=O)c1ccccc1CC2
104 to 105	COC(=O)NC(C)Cc1cccc([N+](=O)[O-])c1 (stereo not drawn)
267 to 268	COc1c(C)c(OC(=O)c2c(C)c(C)c(OCCCOc3ccc(C(=O)O)cc3)c(C)c2OC)c(C)c(C)c1C(N)=O
141 to 145	O=C1NC(=O)C(c2c[nH]c3ccccc23)C1c1cc2c3c(ccn3CCC2)c1 (stereo not drawn)
173 to 174	CCCCN(CCCC)S(=O)(=O)c1cc(O)c(N=Nc2c(C)nn(-c3ccccc3)c2O)c2ccccc12

Reference: a melting point compilation (Tetko et al.; mined from patent text by program, amines drawn as free bases though some values may be those of a salt)
